These are literature values, as cited in US20140051737A1, “METHODS FOR THE TREATMENT AND DIAGNOSTIC OF PULMONARY ARTERIAL HYPERTENSION” (UNIVERSITE LAVAL, priority 2011, published 2014).

For the data set, the system named is patients carrying the BRCA1 or BRCA2 mutation. Particulars: cited from earlier work.

As to `O=C(c1cc(Cc2n[nH]c(=O)c3ccccc23)ccc1F)N1CCN(C(=O)C2CC2)CC1` [olaparib], the objective antitumor activity result was “only showed objective antitumor activity in patients carrying the BRCA1 or BRCA2 mutation”.
